Like-named read-outs stand apart in the source and are kept apart here.
Biological target: T1, human Kv3.1 channels (hKv3.1) (Homo sapiens, UniProt P48547)
T1 construct: expressed in transfected cells
T1 sequence (P48547 1-511): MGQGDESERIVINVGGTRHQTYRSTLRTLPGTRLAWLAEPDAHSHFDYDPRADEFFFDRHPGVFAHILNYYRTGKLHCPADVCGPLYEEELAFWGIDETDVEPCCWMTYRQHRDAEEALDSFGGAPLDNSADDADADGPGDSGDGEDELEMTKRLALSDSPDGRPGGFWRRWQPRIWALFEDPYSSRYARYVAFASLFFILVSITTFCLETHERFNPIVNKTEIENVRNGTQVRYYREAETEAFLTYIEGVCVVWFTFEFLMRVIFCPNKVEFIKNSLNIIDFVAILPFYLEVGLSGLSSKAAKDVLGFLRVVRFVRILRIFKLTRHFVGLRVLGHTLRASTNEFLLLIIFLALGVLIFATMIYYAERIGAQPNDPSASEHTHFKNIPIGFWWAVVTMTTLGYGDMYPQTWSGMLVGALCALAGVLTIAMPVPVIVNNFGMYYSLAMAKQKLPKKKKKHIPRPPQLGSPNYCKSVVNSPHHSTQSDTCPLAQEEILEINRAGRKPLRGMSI
Assay: Kv3.1 channel modulation, IonWorks Quattro planar array electrophysiology
Format: cell-based
Conditions: for Kv3.1 max R %: normalised to maximum effect of 50 microM reference compound

[1] = HEK-293 cells expressing human Kv3.1, currents at −15 mV voltage step, normalised to 50 microM reference compound and vehicle
[2] = HEK-293 cells expressing human Kv3.1, currents at −15 mV voltage step, normalised to 50 microM reference compound and vehicle, read-out: Kv3.1 pEC50 (converted)
[3] = HEK-293 cells expressing human Kv3.1

Row | EC50 [2] | Structure (SMILES) | Kv3.1 pEC50 [1] | Kv3.1 max R % [3] | EC50
1 | – | Cc1ccc(Oc2ccc(N3C(=O)NC(C)(C)C3=O)cn2)c2c1OCC21CC1 [Reference Example 1, reference compound] | – | – | 2510 nM
2 | 12600 nM | COc1nc(Oc2ccc(C#N)c(OC(F)(F)F)c2)ccc1N1C(=O)NC(C)(C)C1=O [Reference Example 9, reference compound] | – | – | –
3 | 2000 nM | CC[C@H]1NC(=O)N(c2ccc(Oc3cccc4c3C3(CC3)CO4)nc2OC)C1=O [Reference Example 14, reference compound] | – | – | –
4 | 12600 nM | COc1nc(Oc2ccc(C)c(OC(F)(F)F)c2)ccc1N1C(=O)NC(C)(C)C1=O [Reference Example 7, reference compound] | – | – | –
5 | 1580 nM | Cc1ccc(Oc2ccc(N3C(=O)NC(C)(C)C3=O)c(C)n2)c2c1OCC21CC1 [Reference Example 3, reference compound] | – | – | –
6 | 10000 nM | CC[C@H]1NC(=O)N(c2ccc(Oc3ccc(C#N)c(OC(F)(F)F)c3)nc2OC)C1=O [Reference Example 18, reference compound] | – | – | –
7 | – | Cc1ccc(Oc2ccc(N3C(=O)NC(C)(C)C3=O)cn2)cc1OC(F)(F)F [Reference Example 6, reference compound] | – | – | 10000 nM
8 | 7940 nM | CC[C@H]1NC(=O)N(c2ccc(Oc3ccc(C)c(OC(F)(F)F)c3)nc2OC)C1=O [Reference Example 16, reference compound] | – | – | –
9 | 5010 nM | CC[C@H]1NC(=O)N(c2ccc(Oc3ccc(C)c(OC(F)(F)F)c3)nc2C)C1=O [Reference Example 17, reference compound] | – | – | –
10 | 631 nM | CC[C@H]1NC(=O)N(c2ccc(Oc3ccc(C)c4c3C3(CC3)CO4)nc2C)C1=O [Reference Example 12, reference compound] | – | – | –
11 | 31600 nM | CC1(C)NC(=O)N(c2ccc(Oc3cccc4c3C3(CC3)CO4)nc2)C1=O [Reference Example 4, reference compound] | – | – | –
12 | 1260 nM | CC[C@H]1NC(=O)N(c2ccc(Oc3ccc(C#N)c(C(C)C)c3)nc2)C1=O [Reference Example 19, reference compound] | – | – | –
13 | 2510 nM | CC[C@H]1NC(=O)N(c2ccc(Oc3ccc(C)c(OC(F)(F)F)c3)nc2)C1=O [Reference Example 15, reference compound] | – | – | –
14 | 6310 nM | Cc1ccc(Oc2ccc(N3C(=O)NC(C)(C)C3=O)c(C)n2)cc1OC(F)(F)F [Reference Example 8, reference compound] | – | – | –
15 | 1260 nM | CC[C@H]1NC(=O)N(c2ccc(Oc3ccc(C)c4c3C3(CC3)CO4)nc2OC)C1=O [Reference Example 11, reference compound] | – | – | –
16 | 3980 nM | COc1nc(Oc2cccc3c2C2(CC2)CO3)ccc1N1C(=O)NC(C)(C)C1=O [Reference Example 5, reference compound] | – | – | –

Row | Structure (SMILES) | EC50 [2] | Kv3.1 pEC50 [1] | Kv3.1 max R % [3] | EC50
17 | CC[C@H]1NC(=O)N(c2ccc(Oc3ccc(C)c4c3C3(CC3)CO4)nc2N)C1=O [Example 2, (5R)-3-[2-amino-6-(7-methylspiro[2H-benzofuran-3,1′-cyclopropane]-4-yl)oxy-3-pyridyl]-5-ethyl-imidazolidine-2,4-dione] | 501 nM | 6.3 | 161% | –
18 | COc1cccc(Oc2ccc(N3C(=O)NC(C)(C)C3=O)c(N)n2)c1 [Example 6, 3-[2-amino-6-(3-methoxyphenoxy)-3-pyridyl]-5,5-dimethyl-imidazolidine-2,4-dione] | 12600 nM | – | 89% | –
19 | CC1(C)NC(=O)N(c2ccc(Oc3ccc(C#N)c(OC(F)(F)F)c3)nc2N)C1=O [Example 10, 4-[[6-amino-5-(4,4-dimethyl-2,5-dioxo-imidazolidin-1-yl)-2-pyridyl]oxy]-2-(trifluoromethoxy)benzonitrile] | 2510 nM | 5.6 | 113% | –
20 | Cc1ccc(Oc2ccc(N3C(=O)NC(C)(C)C3=O)c(N)n2)cc1OC(F)(F)F [Example 7, 3-[2-amino-6-[4-methyl-3-(trifluoromethoxy)phenoxy]-3-pyridyl]-5,5-dimethyl-imidazolidine-2,4-dione] | 2510 nM | 5.6 | 135% | –
21 | CC(C)c1cc(Oc2ccc(N3C(=O)NC(C)(C)C3=O)c(N)n2)ccc1C#N [Example 12, 4-[[6-amino-5-(4,4-dimethyl-2,5-dioxo-imidazolidin-1-yl)-2-pyridyl]oxy]-2-isopropyl-benzonitrile] | 2000 nM | – | 175% | –
22 | CC[C@H]1NC(=O)N(c2ccc(Oc3cccc4c3C3(CC3)CO4)nc2N)C1=O [Example 4, (5R)-3-(2-amino-6-spiro[2H-benzofuran-3,1′-cyclopropane]-4-yloxy-3-pyridyl)-5-ethyl-imidazolidine-2,4-dione] | 1000 nM | 6.0 | 159% | –
23 | Cc1ccc(Oc2ccc(N3C(=O)NC(C)(C)C3=O)c(N)n2)c2c1OCC2(C)C [Example 14, 3-[2-amino-6-[(3,3,7-trimethyl-2H-benzofuran-4-yl)oxy]-3-pyridyl]-5,5-dimethyl-imidazolidine-2,4-dione] | 501 nM | – | 165% | –
24 | CC1(C)NC(=O)N(c2ccc(Oc3cccc4c3C(C)(C)CO4)nc2N)C1=O [Example 5, 3-[2-amino-6-[(3,3-dimethyl-2H-benzofuran-4-yl)oxy]-3-pyridyl]-5,5-dimethyl-imidazolidine-2,4-dione] | 631 nM | – | 152% | –
25 | CC1(C)NC(=O)N(c2ccc(Oc3cccc4c3C3(CC3)CO4)nc2N)C1=O [Example 3, 3-(2-amino-6-spiro[2H-benzofuran-3,1′-cyclopropane]-4-yloxy-3-pyridyl)-5,5-dimethyl-imidazolidine-2,4-dione] | 501 nM | 6.3 | 159% | –
26 | CC[C@H]1NC(=O)N(c2ccc(Oc3ccc(C#N)c(OC(F)(F)F)c3)nc2N)C1=O [Example 11, 4-[[6-amino-5-[(4R)-4-ethyl-2,5-dioxo-imidazolidin-1-yl]-2-pyridyl]oxy]-2-(trifluoromethoxy)benzonitrile] | 3160 nM | 5.5 | 161% | –
27 | CC[C@H]1NC(=O)N(c2ccc(Oc3ccc(C#N)c(C(C)C)c3)nc2N)C1=O [Example 13, 4-[[6-amino-5-[(4R)-4-ethyl-2,5-dioxo-imidazolidin-1-yl]-2-pyridyl]oxy]-2-isopropyl-benzonitrile] | 3160 nM | 5.5 | 161% | –
28 | CC[C@H]1NC(=O)N(c2ccc(Oc3ccc(C)c(OC(F)(F)F)c3)nc2N)C1=O [Example 8, (5R)-3-[2-amino-6-[4-methyl-3-(trifluoromethoxy)phenoxy]-3-pyridyl]-5-ethyl-imidazolidine-2,4-dione] | 3160 nM | 5.5 | 137% | –
